The results in this text go back to patent publication US20190083420A1, “METHODS OF USING (2R, 6R)-HYDROXYN[…] (2S, 6S)-HYDROXYN[…] THE TREATMENT OF DEPRESSION, ANXIETY, ANHEDONIA, FATIGUE, SUICIDAL IDEATION, AND POST TRAUMATIC STRESS DISORDERS” (The Uinited States of America, as represented by the …, priority 2016, published 2019).

“Also recorded” adds a separate entry of the source.

The test system of one data set is BDNF. Description: Western blot of synaptoneurosomes, BDNF levels. It counts as in vivo, mice. To be noted: for mBDNF levels: hippocampus, 24 hours post-administration, 10 mg/kg; for proBDNF / mBDNF levels: prefrontal cortex. How it is done:
To purify synaptoneurosomes, mouse prefrontal cortex or hippocampus were dissected and homogenized in Syn-PER Reagent (ThermoFisher Scientific, Waltham, Mass., USA; Cat #87793) with 1× protease and phosphatase inhibitor cocktail (ThermoFisher Scientific, Waltham, Mass., USA; Cat #78440). The homogenate was centrifuged for 10 min at 1,200×g at 4° C. The supernatant was centrifuged at 15,000×g for 20 min. After centrifugation, the supernatant the pellet (synaptosomal fraction) was re-suspended and sonicated in N-PER Neuronal Protein Extraction Reagent (ThermoFisher Scientific, Waltham, Mass., USA; Cat #87792). For total homogenous tissue lysates, mouse prefrontal cortex or hippocampus were homogenized and sonicated in N-PER Neuronal Protein Extraction Reagent with 1× protease & phosphatase inhibitor cocktail) Protein concentration was determined via the BCA protein assay kit (ThermoFisher Scientific, Waltham, Mass., USA; Cat #23227).
For western blotting, equal amount of proteins (10-40 μg as optimal for each antibody) for each sample were loaded into NuPage 4-12% Bis-Tris gel for electrophoresis. Nitrocellulose membranes with transferred proteins were blocked with 5% milk in TBST (TBS+0.1% Tween-20) for 1 hour and kept with primary antibodies overnight at 4° C. The following primary antibodies were used: phospho-eEF2 (Cell Signaling Technology, Danvers, Mass., USA; Cat #2331), total eEF2 (Cell Signaling Technology, Danvers, Mass., USA; Cat #2332), phospho-mTOR (Cell Signaling Technology, Danvers, Mass., USA; Cat #2971), total mTOR (Cell Signaling Technology, Danvers, Mass., USA; Cat #2983), GluR1 (Cell Signaling Technology, Danvers, Mass., USA; […]), GluR2 (Cell Signaling Technology, Danvers, Mass., USA; Cat #13607), BDNF (Santa Cruz Biotechnology, Dallas, Tex., USA; Cat # sc-546), and GAPDH (Abcam, Cambridge, Mass., USA; Cat # ab8245). The next day, blots were washed three times in PBST and incubated with horseradish peroxidase conjugated anti-mouse or anti-rabbit secondary antibody (1:5000 to 1:10000) for 1 hour. After final three washes with TBST, bands were detected using enhanced chemiluminescence (ECL) with the Syngene Imaging System (G:Box ChemiXX9). After imaging, the blots then were incubated in the stripping buffer (ThermoFisher Scientific, Waltham, Mass., USA; Cat #46430) for 10-15 min at room temperature followed by three time washes with TBST. The stripped blots were washed in blocking solution for 1 hour and incubated with the primary antibody directed against total levels of the respective protein or GAPDH for loading control. Densitometric analysis of phospho- and total immunoreactive bands for each protein was conducted using Syngene's GenTools software Immunoreactivity was normalized to the saline treated control group for each protein.
In general terms: In western blotting, separated proteins are transferred to a membrane and probed.

In data set [1] the test system is mice. Nature of the data set: Accelerating rotarod (motor coordination). The note with it: 5-60 min post-injection, i.p. It counts as in vivo. How it is done: The rotarod test was conducted to compare the effects of ketamine, (2S,6S)-HNK and (2R,6R)-HNK on motor coordination. The experiment consisted of two phases: training phase (4 days) and a test phase (1 day). On each of the training days five trials (trial time: 3 min) were conducted with an inter-trial interval of two min Mice were individually placed on the rotarod apparatus (HTC Life Science; Woodland Hills, Calif., USA) and the rotor (3.75 inch diameter) accelerated from 5-20 RPM over a period of three minutes. Latency to fall was recorded for each trial. Animals with an average of <100 sec of latency to fall during the last training day were excluded from the experiment. On the test day (day 5), mice received (i.p.) injections of saline, (R,S)-KET (10 mg/kg), (2S,6S)-HNK (25 or 125 mg/kg) or (2R,6R)-HNK (2.5 or 125 mg/kg) and were tested in the rotating rod 5-. 10-, 15-, 20-, 30- and 60-min post-injection using the same procedure described for the training days.

Data set [2] relates to mice. Nature of the data set: Chronic corticosterone-induced anhedonia, female urine sniffing test. It counts as in vivo. The note with it: single administration, mice with anhedonic phenotype, re-test 24 hours later. How it is done:
A separate cohort of mice were treated with the same chronic corticosterone administration paradigm as described above, and 24 hours later assessed for female urine sniffing preference as a measure of hedonic behavior. Mice were singly-housed in freshly-made home cages for a habituation period of 10 min. Subsequently, one plain cotton tip was secured on the center of the cage wall and mice were allowed to sniff and habituate to the tip for a period of 30 min. Then, the plain cotton tip was removed and replaced by two cotton tip applicators one infused with fresh female mouse estrus urine and the other with fresh male mouse urine. These applicators were presented at the same time and secured at the two corners of the cage wall. Sniffing time for both the female and male urine was scored by a trained observer for a period of three minutes.

The test system of data set [3] is mice. Description: Chronic corticosterone-induced anhedonia, sucrose preference test. It is filed as in vivo. The note with it: single administration, measured after 24 hours. How it is done:
For assessing the baseline sucrose preference, mice were singly housed for 24 hours and presented with two identical bottles containing either tap water or 1% sucrose solution. Following baseline sucrose measurement, mice were re-grouped housed (5 mice per cage) and treated for 4 weeks with corticosterone (25 μg/ml equivalent) given in water bottles. Prior to initiation of any behavioral measurements, animals were weaned off corticosterone treatment; 3 days corticosterone 12.5 μg/ml and 3 days corticosterone 6.25 μg/ml, followed by 1 week of complete withdrawal from the drug. Mice were subsequently singly-housed in freshly-made home cages and provided with two bottles containing either tap water or 1% sucrose solution. Twenty-four hours later, mice that developed anhedonia phenotype (<55% sucrose preference) were treated with saline or (2R,6R)-HNK (10 mg/kg) and sucrose preference measured after an additional 24 hours.

A further data set relates to male CD-1 mice. Nature of the data set: Novelty-suppressed feeding (NSF). It is filed as in vivo. The note with it: i.p. The text has this: Male CD-1 mice (8-10 weeks old, Charles River Laboratories, Mass., USA) were housed in groups of four-five per cage with a constant 12-hour light/dark cycle (lights on/off at 07:00/19:00). Food and water were available ad libitum. Mice acclimatized to the new environment for seven days prior to the start of the experiments. For the whole-cell NMDA current electrophysiological recordings, male Sprague-Dawley rats (housed three per cage; Charles River, Wilmington, Mass.) were used. EPSC recording were done from rats at postnatal day 24-25. All experimental procedures were approved by the University of Maryland, Baltimore Animal Care and Use Committee and were conducted in full accordance with the National Institutes of Health Guide for the Care and Use of Laboratory Animals.
Mice were singly housed and food-deprived for twenty-four hours in freshly-made home-cages. Two normal chow diet pellets were placed on a square food platform (10×10 cm) in the center of an open-field arena (40×40 cm). […] The time needed for the mice to take a bite of food was recorded over a 10 min period by a trained observer blind to the treatment groups. After the test, the mice were returned to their home cage containing pre-weighed food pellets, and latency to bite the food as well as consumption was recorded for a period of 10 min.

Regarding `CNC1(c2ccccc2Cl)CCCCC1=O` (racemic) [ketamine, (R,S)-ketamine, reference compound], the mBDNF levels entry in the data set on BDNF is recorded as “increased hippocampal BDNF”; in the data set with BDNF (listed as (R,S)-ketamine), “increased mBDNF levels”. Moreover, the “proBDNF / mBDNF levels” value in the data set with BDNF is reported as “did not alter”.
In the case of `N[C@@]1(c2ccccc2Cl)CCC[C@@H](O)C1=O` [(2R,6R)-HNK, (2R,6R)-2-amino-2-(2-chlorophenyl)-6-hydroxycyclohexanone], the “motor coordination in the rotarod” value in the data set on mice [1] is listed as “did not affect coordination”. Moreover, in the data set on mice [2], the “reversal of chronic corticosterone-induced decrease in female urine sniffing preference” value is given as “reversed chronic corticosterone-induced decrease in female urine sniffing preference; also recorded: reversed chronic corticosterone-induced anhedonia”. Moreover, in the data set with BDNF (listed as (2R,6R)-hydroxynorketamine), the mBDNF levels result is listed as “increased mBDNF levels”. Also, the “proBDNF / mBDNF levels” value with BDNF is listed as “did not alter”. Also, in the data set with mice [3], the “reversal of chronic corticosterone-induced decrease in sucrose preference” value is on record as “reversed chronic corticosterone-induced decreases in sucrose preference; also recorded: reversed chronic corticosterone-induced anhedonia”. Moreover, the “antidepressant-like effect in novelty-suppressed feeding (latency to feed)” value in the data set on male CD-1 mice is “dose-dependent antidepressant-like effects; also recorded: dose-dependent antidepressant action”.
